Data published in US7973075B2, “Kainate receptor-selective epimeric analogs of dysiherbaine” (priority 2007, dated 2011).

Tests used:
[1] = target: T1, GluR6 (Rattus norvegicus, UniProt P42260); assay: Patch-clamp recordings from transfected HEK 293 cells, Example 1; assay type: cell-based; details: Example 1, FIG. 5
T1 construct: expressed in transfected cells; HEK 293 (patch clamp)
Protocol: Non-specific binding was defined in the presence of 1 mM glutamate. The effect of these analogs on electrophysiology was assessed as follows. HEK 293 cells were transfected with receptor cDNAs in combination with eGFP cDNA. Patch-clamp recordings from transfected cells were made 24-72 hours later using a fast application system described previously (Swanson et al., NEURON 1997; 19:913-26). (See FIG. 3.)
The effect of these analogs on electrophysiology also was assessed as described above. […] The results further indicate that the C8 and C9 substituents are necessary for binding to all AMPA and KAR subunits except for GluR5 subunits. The C9 polar group must be present and in the correct spatial orientation for high-affinity GluR5 subunit binding. Inter-domain contacts mediated by residue 721S are critical determinants of binding affinity. The epimer analog 9-deoxy-neoDH mimics the binding affinity of the di-deoxy analog MSVIII-19, but acts as an agonist rather than an antagonist.

[2] = target: T2, GluR5-2b (Rattus norvegicus, UniProt P22756); assay: Radioligand binding ([3H]kainate displacement), Example 2
T2 construct: expressed in transfected cells; host or cells: HEK-293-T/17
T2 sequence (P22756 31-905 isoform P22756-2 limits assumed): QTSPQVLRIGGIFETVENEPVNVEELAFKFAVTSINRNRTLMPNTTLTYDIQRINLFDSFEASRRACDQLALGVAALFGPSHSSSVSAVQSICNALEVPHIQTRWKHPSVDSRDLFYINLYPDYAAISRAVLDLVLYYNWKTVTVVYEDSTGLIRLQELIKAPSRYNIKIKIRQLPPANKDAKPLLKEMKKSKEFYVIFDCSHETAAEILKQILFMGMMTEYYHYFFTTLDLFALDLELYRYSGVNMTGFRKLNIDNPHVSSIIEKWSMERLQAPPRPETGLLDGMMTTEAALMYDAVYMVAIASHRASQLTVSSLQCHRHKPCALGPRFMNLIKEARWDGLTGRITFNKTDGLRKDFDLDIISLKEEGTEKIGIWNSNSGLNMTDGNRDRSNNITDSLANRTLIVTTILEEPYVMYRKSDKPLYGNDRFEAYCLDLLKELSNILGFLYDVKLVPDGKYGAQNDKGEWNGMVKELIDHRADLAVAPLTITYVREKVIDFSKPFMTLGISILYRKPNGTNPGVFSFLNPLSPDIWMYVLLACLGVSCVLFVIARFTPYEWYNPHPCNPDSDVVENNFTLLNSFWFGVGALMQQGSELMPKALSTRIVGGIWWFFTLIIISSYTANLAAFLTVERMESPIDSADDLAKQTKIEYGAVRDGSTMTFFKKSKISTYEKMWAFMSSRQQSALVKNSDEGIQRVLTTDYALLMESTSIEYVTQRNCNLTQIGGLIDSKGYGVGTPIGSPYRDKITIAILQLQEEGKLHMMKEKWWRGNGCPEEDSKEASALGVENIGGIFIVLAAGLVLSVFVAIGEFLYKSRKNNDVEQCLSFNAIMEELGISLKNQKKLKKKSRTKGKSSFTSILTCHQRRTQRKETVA
Protocol: Radioligand binding. Membrane preparations from HEK-293-T/17 cells were prepared and used in radioligand binding assays as described previously (Sanders et al., 2005). Unlabeled analogs were used to displace [3H]kainate (10-20 nM, PerkinElmer Life and Analytical Sciences, Boston, Mass.) or [3H]AMPA (20 nM, PerkinElmer Life and Analytical Sciences, Boston, Mass.) from KARs and AMPARs, respectively. Nonspecific binding was determined in the presence of 1 mM glutamate. After 1 hour incubation at 4° C., samples were harvested by rapid filtration onto Whatman GF/C membranes. Upon addition of scintillation fluid, membranes were incubated for 1 hour at room temperature. A Beckman LS5000TD scintillation counter was used for quantification (Beckman Coulter Inc., Fullerton, Calif.). Data were plotted and fit with a one-site competition curve with fixed minima and maxima using Prism 4 (GraphPad Software, Inc). Ki's were calculated with the Cheng-Prusoff equation using the determined IC5o values and the radioligand Kd. Data were plotted and fit with a one-site competition curve with fixed minima (0) and maxima (100) (Prism4, GraphPad Software, Inc.). […]
The pharmacological profiles of the Group I analogs, 8-deoxy-neoDH and 9-deoxyneoDH, were analyzed initially in radioligand binding experiments with expressed recombinant AMPA and kainate receptor subunits. […]

[3] = target: T3, GluR5-2a (Rattus norvegicus, UniProt P22756, DEL402-416); details: Sanders et al., 2005; cited from earlier work
T3 construct: expressed in transfected cells; host or cells: HEK-293-T/17
T3 sequence (P22756 with tags, fused parts or gaps isoform P22756-2 limits assumed, stated change not applied): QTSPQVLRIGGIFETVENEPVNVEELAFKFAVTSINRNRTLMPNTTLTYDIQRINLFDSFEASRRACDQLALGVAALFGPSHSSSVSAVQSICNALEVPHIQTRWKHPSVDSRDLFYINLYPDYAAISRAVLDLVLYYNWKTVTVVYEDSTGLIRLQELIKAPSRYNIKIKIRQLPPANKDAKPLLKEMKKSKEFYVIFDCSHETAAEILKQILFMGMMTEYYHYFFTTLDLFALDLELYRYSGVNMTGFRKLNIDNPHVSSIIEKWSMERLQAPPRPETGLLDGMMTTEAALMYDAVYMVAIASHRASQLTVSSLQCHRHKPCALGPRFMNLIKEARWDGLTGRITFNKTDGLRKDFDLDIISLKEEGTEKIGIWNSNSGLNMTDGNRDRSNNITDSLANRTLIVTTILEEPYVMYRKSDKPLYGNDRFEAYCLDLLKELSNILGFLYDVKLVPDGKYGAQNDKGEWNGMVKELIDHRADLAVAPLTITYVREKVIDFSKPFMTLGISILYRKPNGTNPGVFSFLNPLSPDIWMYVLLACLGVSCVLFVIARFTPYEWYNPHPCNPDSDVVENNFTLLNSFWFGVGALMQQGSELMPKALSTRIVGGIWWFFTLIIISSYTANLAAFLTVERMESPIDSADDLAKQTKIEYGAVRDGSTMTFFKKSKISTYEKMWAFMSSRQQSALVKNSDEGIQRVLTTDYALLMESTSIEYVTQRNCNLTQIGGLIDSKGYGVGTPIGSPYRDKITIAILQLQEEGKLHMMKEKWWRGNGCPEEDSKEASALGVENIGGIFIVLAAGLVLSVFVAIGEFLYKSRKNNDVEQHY

[4] = target: T4, KA2 (Rattus norvegicus, UniProt Q63273); details: Sanders et al., 2005; cited from earlier work
T4 construct: expressed in transfected cells; host or cells: HEK-293-T/17
T4 sequence (Q63273 15-979): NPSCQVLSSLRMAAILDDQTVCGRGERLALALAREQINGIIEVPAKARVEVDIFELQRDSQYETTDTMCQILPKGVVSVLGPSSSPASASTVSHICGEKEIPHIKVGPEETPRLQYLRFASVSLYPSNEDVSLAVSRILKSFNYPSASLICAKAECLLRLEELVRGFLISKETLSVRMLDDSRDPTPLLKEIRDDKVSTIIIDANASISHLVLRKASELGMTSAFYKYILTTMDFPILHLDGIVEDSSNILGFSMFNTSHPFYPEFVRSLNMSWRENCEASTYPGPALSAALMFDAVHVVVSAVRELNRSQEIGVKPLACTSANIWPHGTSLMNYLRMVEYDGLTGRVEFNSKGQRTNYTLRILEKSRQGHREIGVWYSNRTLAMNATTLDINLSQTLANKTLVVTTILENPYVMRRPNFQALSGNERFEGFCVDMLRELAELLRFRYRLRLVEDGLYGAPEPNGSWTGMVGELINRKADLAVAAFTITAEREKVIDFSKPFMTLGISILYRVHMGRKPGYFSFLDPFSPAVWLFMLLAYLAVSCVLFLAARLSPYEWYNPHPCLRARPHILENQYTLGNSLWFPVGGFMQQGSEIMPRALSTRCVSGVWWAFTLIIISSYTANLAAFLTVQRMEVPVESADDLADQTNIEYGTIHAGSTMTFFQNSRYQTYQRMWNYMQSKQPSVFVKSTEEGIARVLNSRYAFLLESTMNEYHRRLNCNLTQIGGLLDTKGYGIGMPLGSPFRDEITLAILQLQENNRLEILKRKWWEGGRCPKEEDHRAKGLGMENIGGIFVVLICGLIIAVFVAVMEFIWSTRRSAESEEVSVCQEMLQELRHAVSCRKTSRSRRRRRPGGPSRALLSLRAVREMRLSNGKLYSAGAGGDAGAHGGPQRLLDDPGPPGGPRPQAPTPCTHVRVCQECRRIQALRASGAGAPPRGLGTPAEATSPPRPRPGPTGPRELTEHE

[5] = target: T5, GluR1 (Rattus norvegicus, UniProt P19490); details: Table 1; comparison value of MSVIII-19 (Sanders et al., 2005); read-out: GluR1 binding affinity (displacement of [3H]AMPA); cited from earlier work
T5 construct: expressed in transfected cells; host or cells: COS-7 or HEK-T/17
T5 sequence (P19490 19-907 isoform P19490-2 limits assumed): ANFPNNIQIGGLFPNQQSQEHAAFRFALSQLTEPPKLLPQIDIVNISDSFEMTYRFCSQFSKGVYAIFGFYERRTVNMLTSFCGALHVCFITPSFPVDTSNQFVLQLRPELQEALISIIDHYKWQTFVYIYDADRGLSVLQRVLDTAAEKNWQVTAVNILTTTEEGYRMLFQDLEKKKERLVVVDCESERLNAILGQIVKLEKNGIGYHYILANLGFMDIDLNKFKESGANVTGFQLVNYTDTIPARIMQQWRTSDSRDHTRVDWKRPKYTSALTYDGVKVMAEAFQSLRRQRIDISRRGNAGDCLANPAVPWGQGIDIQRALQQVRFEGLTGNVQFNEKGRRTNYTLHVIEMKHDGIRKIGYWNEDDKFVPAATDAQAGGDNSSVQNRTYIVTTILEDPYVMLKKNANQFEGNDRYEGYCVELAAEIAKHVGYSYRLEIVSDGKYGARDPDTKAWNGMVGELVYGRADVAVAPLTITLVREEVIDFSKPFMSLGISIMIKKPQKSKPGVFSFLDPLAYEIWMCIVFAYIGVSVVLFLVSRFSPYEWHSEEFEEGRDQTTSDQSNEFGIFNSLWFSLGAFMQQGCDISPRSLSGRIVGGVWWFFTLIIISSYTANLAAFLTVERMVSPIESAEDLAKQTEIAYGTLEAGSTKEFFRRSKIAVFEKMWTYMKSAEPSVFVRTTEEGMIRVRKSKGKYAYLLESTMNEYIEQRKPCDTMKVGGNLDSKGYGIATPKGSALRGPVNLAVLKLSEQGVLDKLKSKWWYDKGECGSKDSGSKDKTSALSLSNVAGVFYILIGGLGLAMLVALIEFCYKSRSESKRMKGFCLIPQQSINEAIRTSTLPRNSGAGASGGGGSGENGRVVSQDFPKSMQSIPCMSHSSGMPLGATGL

[6] = target: T6, GluR2(i) (Rattus norvegicus, UniProt P19491); details: Sanders et al., 2005; cited from earlier work
T6 construct: expressed in transfected cells; host or cells: HEK-293-T/17
T6 sequence (P19491 22-883 isoform P19491-2 limits assumed): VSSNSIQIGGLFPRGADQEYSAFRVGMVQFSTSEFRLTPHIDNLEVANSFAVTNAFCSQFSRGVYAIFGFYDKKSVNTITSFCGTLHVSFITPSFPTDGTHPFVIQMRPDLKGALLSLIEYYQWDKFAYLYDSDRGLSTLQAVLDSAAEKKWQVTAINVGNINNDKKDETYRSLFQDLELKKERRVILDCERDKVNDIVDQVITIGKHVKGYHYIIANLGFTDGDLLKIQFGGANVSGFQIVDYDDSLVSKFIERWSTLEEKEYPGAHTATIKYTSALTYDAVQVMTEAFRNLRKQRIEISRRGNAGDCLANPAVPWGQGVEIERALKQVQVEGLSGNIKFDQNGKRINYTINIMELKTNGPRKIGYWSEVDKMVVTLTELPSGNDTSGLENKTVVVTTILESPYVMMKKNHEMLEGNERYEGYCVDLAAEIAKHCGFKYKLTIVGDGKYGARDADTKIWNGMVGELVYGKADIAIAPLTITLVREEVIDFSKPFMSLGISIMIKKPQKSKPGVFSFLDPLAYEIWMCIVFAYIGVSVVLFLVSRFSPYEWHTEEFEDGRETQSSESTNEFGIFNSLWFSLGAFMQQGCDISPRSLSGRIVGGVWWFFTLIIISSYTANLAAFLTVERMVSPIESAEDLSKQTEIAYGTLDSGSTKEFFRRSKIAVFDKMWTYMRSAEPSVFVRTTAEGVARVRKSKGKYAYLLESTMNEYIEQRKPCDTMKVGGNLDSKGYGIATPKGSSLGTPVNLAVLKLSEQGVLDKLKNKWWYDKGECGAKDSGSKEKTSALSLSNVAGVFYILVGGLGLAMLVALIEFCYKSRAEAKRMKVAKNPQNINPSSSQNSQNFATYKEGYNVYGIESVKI

[7] = target: T7, GluR6a (Rattus norvegicus, UniProt P42260); details: Sanders et al., 2005; cited from earlier work
T7 construct: expressed in transfected cells; host or cells: HEK-293-T/17
T7 sequence (P42260 32-908): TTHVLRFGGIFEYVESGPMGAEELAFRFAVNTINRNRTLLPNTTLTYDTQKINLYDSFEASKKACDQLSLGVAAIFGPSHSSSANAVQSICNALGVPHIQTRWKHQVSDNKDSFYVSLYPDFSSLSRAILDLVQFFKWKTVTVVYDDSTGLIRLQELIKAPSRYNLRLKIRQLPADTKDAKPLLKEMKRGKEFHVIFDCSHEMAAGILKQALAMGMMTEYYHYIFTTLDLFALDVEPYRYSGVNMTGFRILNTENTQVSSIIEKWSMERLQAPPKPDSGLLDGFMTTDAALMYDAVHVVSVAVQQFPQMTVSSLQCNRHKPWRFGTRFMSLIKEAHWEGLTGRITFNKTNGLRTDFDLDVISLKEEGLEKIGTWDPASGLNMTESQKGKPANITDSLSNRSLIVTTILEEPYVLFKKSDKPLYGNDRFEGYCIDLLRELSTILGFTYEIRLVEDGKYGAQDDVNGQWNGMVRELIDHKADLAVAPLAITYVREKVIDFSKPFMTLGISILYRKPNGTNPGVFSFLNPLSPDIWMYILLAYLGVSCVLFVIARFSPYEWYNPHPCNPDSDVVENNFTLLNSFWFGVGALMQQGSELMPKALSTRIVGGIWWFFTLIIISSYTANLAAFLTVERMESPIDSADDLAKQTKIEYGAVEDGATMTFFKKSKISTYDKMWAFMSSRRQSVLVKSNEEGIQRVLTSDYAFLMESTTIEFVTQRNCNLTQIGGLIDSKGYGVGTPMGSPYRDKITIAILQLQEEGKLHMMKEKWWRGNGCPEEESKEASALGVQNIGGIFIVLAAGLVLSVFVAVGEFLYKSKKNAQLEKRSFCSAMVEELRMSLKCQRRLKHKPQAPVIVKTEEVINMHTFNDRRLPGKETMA

T1 sequence (P42260 32-908): as above

**Q.** Which “agonist or antagonist at GluR6 (electrophysiology)” value [1] does the source give for `N[C@@H](C[C@@]1(C(=O)O)CC2OCC(O)C(O)C2O1)C(=O)O` (single isomer, unassigned) [4-epi-neoDH, 4-epi-neodysiherbaine] here?
**A.** The value was “GluR5/GluR6 antagonist”.

**Q.** Which Ki [2] does the source give for `N[C@@H](C[C@]1(C(=O)O)C[C@H]2OC[C@@H](O)C[C@H]2O1)C(=O)O` [8-deoxy-neoDH] here?
**A.** The Ki was 0.002 µM.

**Q.** With `N[C@@H](C[C@]1(C(=O)O)C[C@H]2OCCC[C@H]2O1)C(=O)O` [MSVIII-19, 8,9-dideoxy-neoDH] as the compound, how does the Ki [3] read?
**A.** The Ki was 0.128 µM.

**Q.** And the “Ki KA2” value [4]?
**A.** The value was greater than 100 µM.

**Q.** What about the Ki [5] of the same compound?
**A.** The Ki was greater than 100 µM.

**Q.** What about the Ki [6] of the same compound?
**A.** The Ki was greater than 100 µM.

**Q.** What about the Ki [7] of the same compound?
**A.** The Ki was greater than 100 µM.
